From patent US7687609B2, “Galectin-glycosaminoglycan complex and method for controlling galectin activity” (National Institute of Advanced Industrial Science and …, priority 2006, dated 2010)

Columns and labels:
Assay in all cases: FAC affinity test on galectin-immobilized column
Assay type in all cases: binding
Galectin-1 = target: T1, Galectin-1 (Homo sapiens, UniProt P09382); details: pyridyl-aminated carbohydrate; galectin-1 immobilized 0.8 mg/ml; less than 5 μl = below interaction detection limit
T1 construct: made in house
Procedure: (§1) Various galectin molecules-immobilized columns were prepared by the method described by Nakamura S, Yagi F, Totani K, Ito γ and Hirabayashi J in FEBS J., 272, 2784-2799 (2005), using NHS Sepharose (manufactured by Amersham Bioscience) as the carrier for immobilizing galectin molecules and in accordance with the instructions attached thereto (put in parentheses is immobilization concentration, mg galectin/ml carrier).
(§2) Each galectin molecule was immobilized onto the carrier at the following concentration; galectin-1 (0.8 mg/ml), galectin-3 (0.5 mg/ml), galectin-8N (3.6 mg/ml), galectin-8C (4.0 mg/ml), galectin-9N (3.6 mg/ml), galectin-9C (3.0 mg/ml). The carrier on which each galectin was immobilized was charged into a stainless steel miniature column (2 mm in inner diameter, 10 mm in length; manufactured by Shimadzu Corp.).
(§3) A high performance liquid chromatography (HPLC) system was equipped with a galectin molecule-immobilized column, and the test was carried out by the method described in Nakamura S, Yagi F, Totani K, Ito γ and Hirabayashi J in FEBS J., 272, 2784-2799 (2005).
(§4) As the negative control sample, pyridyl-aminated N-acetylglucosamine (PA-GlcNAc, manufactured by Takara Bio, pyridyl-aminated glycosaminoglycan-oligosaccharide sample control) or pyridyl-aminated pullulan (prepared by carrying out pyridylamination of standard pullulan manufactured by Shodex, pyridyl-aminated glycosaminoglycan polysaccharide sample control) was used, and a V−V0 value was calculated from their eluate volume (V0 value) measured by fluorescence detection and the eluate volume (V value) of the sample, namely pyridyl-aminated glycosaminoglycan carbohydrate, and this was used as the index of interaction strength (Protein, Nucleic Acid and Enzyme, 48(8), 1206-1212 (2003)).
(§5) V−V0 values of pyridyl-aminated glycosaminoglycans (HA, CH, DN, NAH, CSA, CSB, CSC, CSD, CSE, KS-I and KS-II) were calculated based on PA-GlcNAc, and V−V0 values of pyridyl-aminated glycosaminoglycan-oligosaccharides (G2K1, G1L1, G4L4, L2L2, L2L4, L4L4, SL2L4 and CH3 to CH12) based on pyridyl-aminated pullulan, respectively.
(§6) In this connection, when the calculated value of the V−V0 value was less than 5 μl, it was regarded as less than the interaction detection limit in this example.

Galectin-3 = target: T2, Galectin-3 (Homo sapiens, UniProt P17931); details: pyridyl-aminated carbohydrate; galectin-3 immobilized 0.5 mg/ml; less than 5 μl = below interaction detection limit
T2 construct: made in house
Procedure: as §1, §2, §3, §4, §5, §6

Galectin-9C = target: T3, Galectin-9C (Homo sapiens, UniProt O00182); details: pyridyl-aminated carbohydrate; galectin-9C immobilized 3.0 mg/ml; less than 5 μl = below interaction detection limit
T3 construct: N and C respectively represent N-terminal side carbohydrate-recognition domain and C-terminal side carbohydrate-recognition domain; made in house
Procedure: as §1, §2, §3, §4, §5, §6

Galectin-9N = target: T4, Galectin-9N (Homo sapiens, UniProt O00182); details: pyridyl-aminated carbohydrate; galectin-9N immobilized 3.6 mg/ml; less than 5 μl = below interaction detection limit
T4 construct: N and C respectively represent N-terminal side carbohydrate-recognition domain and C-terminal side carbohydrate-recognition domain; made in house
Procedure: as §1, §2, §3, §4, §5, §6

T2 sequence (P17931 whole entry): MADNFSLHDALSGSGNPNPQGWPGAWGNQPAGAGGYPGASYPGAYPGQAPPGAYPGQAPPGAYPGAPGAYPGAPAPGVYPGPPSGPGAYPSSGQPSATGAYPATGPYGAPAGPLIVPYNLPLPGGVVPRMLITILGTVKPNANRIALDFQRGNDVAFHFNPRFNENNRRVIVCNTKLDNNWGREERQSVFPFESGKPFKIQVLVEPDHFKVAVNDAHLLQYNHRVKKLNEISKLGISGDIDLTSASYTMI
T4 sequence (O00182 17-148 limits assumed): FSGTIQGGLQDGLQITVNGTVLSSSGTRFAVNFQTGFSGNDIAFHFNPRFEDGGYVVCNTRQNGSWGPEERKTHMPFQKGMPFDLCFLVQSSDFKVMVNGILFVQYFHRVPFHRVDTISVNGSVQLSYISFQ
T1 sequence (P09382 whole entry): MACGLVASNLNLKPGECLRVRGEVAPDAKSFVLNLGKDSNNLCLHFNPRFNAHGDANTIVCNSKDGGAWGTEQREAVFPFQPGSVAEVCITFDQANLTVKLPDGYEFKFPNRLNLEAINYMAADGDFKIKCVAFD
T3 sequence (O00182 227-355 limits assumed): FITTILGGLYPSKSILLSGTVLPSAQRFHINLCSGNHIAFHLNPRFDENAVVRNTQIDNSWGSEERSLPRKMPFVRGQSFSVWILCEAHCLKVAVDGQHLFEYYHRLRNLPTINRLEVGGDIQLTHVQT

| Structure (SMILES) | V − V0 Value (Galectin-1) | V − V0 Value (Galectin-3) | V − V0 Value (Galectin-9C) | V − V0 Value (Galectin-9N) |
| --- | --- | --- | --- | --- |
| CC(=O)N[C@H]1[C@H](O[C@H]2[C@H](O)[C@@H](O)[C@H](O[C@H]3[C@@H](O)[C@@H](CO)O[C@@H](O[C@H]4[C@H](O)[C@@H](O)[C@H](O[C@H]5[C@@H](O)[C@@H](CO)O[C@@H](O[C@H]6[C@H](O)[C@@H](O)[C@H](O[C@H]7[C@@H](O)[C@@H](CO)OC(O)[C@@H]7NC(C)=O)O[C@@H]6C(=O)O)[C@@H]5NC(C)=O)O[C@@H]4C(=O)O)[C@@H]3NC(C)=O)O[C@@H]2C(=O)O)O[C@H](CO)[C@H](O)[C@@H]1O (stereo partly drawn) [CH7, (GalNAc β1-4 GlcA β1-3)3 GalNAc] | <5.0 µL | 10.7 ± 1.9 µL | <5.0 µL | 146.4 µL |
| CC(=O)NC1C(O)OC(CO)C(O)C1OC1OC(C(=O)O)C(OC2OC(CO)C(O)C(OC3OC(C(=O)O)C(OC4OC(CO)C(O)C(OC5OC(C(=O)O)C(OC6OC(CO)C(O)C(OC7OC(C(=O)O)C(OC8OC(CO)C(O)C(OC9OC(C(=O)O)C(OC%10OC(CO)C(O)C(OC%11OC(C(=O)O)C(O)C(O)C%11O)C%10NC(C)=O)C(O)C9O)C8NC(C)=O)C(O)C7O)C6NC(C)=O)C(O)C5O)C4NC(C)=O)C(O)C3O)C2NC(C)=O)C(O)C1O (stereo not drawn) [CH12, GlcA β1-3 (GalNAc β1-4 GlcA β1-3)5 GalNAc] |  | 16.8 ± 2.1 µL |  | 196.0 µL |
| CC(=O)N[C@H]1[C@H](O[C@H]2[C@H](O)[C@@H](O)[C@H](O[C@H]3[C@@H](O)[C@@H](CO)OC(O)[C@@H]3NC(C)=O)O[C@@H]2C(=O)O)O[C@H](CO)[C@H](O)[C@@H]1O (stereo partly drawn) [CH3, GalNAc β1-4 GlcA β1-3 GalNAc] | <5.0 µL | <5.0 µL |  | 49.6 ± 8.2 µL |
| CC(=O)NC1C(OC2C(C(=O)O)OC(OC3C(O)C(CO)OC(OC4C(C(=O)O)OC(OC5C(O)C(CO)OC(OC6C(C(=O)O)OC(OC7C(O)C(CO)OC(OC8C(C(=O)O)OC(OC9C(O)C(CO)OC(O)C9NC(C)=O)C(O)C8O)C7NC(C)=O)C(O)C6O)C5NC(C)=O)C(O)C4O)C3NC(C)=O)C(O)C2O)OC(CO)C(O)C1O (stereo not drawn) [CH9, (GalNAc β1-4 GlcA β1-3)4 GalNAc] | <5.0 µL | 15.6 ± 2.5 µL | <5.0 µL | 199.4 µL |
| CC(=O)N[C@H]1[C@H](O[C@H]2[C@H](O)[C@@H](O)[C@H](O[C@H]3[C@@H](O)[C@@H](CO)O[C@@H](O[C@H]4[C@H](O)[C@@H](O)[C@H](O[C@H]5[C@@H](O)[C@@H](CO)OC(O)[C@@H]5NC(C)=O)O[C@@H]4C(=O)O)[C@@H]3NC(C)=O)O[C@@H]2C(=O)O)O[C@H](CO)[C@H](O)[C@@H]1O (stereo partly drawn) [CH5, (GalNAc β1-4 GlcA β1-3)2 GalNAc] | <5.0 µL | <5.0 µL |  | 45.6 ± 4.6 µL |
| CC(=O)NC1C(OC2C(C(=O)O)OC(OC3C(O)C(CO)OC(OC4C(C(=O)O)OC(OC5C(O)C(CO)OC(OC6C(C(=O)O)OC(OC7C(O)C(CO)OC(OC8C(C(=O)O)OC(OC9C(O)C(CO)OC(OC%10C(C(=O)O)OC(OC%11C(O)C(CO)OC(O)C%11NC(C)=O)C(O)C%10O)C9NC(C)=O)C(O)C8O)C7NC(C)=O)C(O)C6O)C5NC(C)=O)C(O)C4O)C3NC(C)=O)C(O)C2O)OC(CO)C(O)C1O (stereo not drawn) [CH11, (GalNAc β1-4 GlcA β1-3)5 GalNAc] |  | 21.4 ± 4.2 µL |  | 218.8 µL |
